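These data come from cells grown in 96-well plates and exposed to compound for 48 hours at five concentrations. The concentration for 50% growth inhibition is given as GI50.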 Active and inactive are the calls of the source. No stated cut-off is given here; in the data, active = GI50 up to about 1.1 µM and inactive = higher.
Legend:
Assay in all cases: NCI tumour cell line growth inhibition, 48 h
HOP-62 = test system: HOP-62
A498 = test system: A498
SK-OV-3 = test system: SK-OV-3
Hs-578T = test system: Hs-578T
DU-145 = test system: DU-145
Malme-3M = test system: Malme-3M
HCT-116 = test system: HCT-116
SNB-75 = test system: SNB-75
OVCAR-8 = test system: OVCAR-8
SF-539 = test system: SF-539
UACC-257 = test system: UACC-257
HCC 2998 = test system: HCC 2998
KM12 = test system: KM12
MOLT-4 = test system: MOLT-4
A549 = test system: A549
TK-10 = test system: TK-10
786-0 = test system: 786-0
SW-620 = test system: SW-620
SNB-19 = test system: SNB-19
HOP-92 = test system: HOP-92

Measured: GI50

CCOC(=O)C12OC(CCC1=O)C(C(=O)OC)=C2C(=O)OC (stereo not given)
inactive: HOP-62 > 10 µM | A498 > 10 µM | SK-OV-3 > 10 µM | Hs-578T > 10 µM | DU-145 > 10 µM | Malme-3M > 10 µM | HCT-116 > 10 µM | SNB-75 2.26 µM | OVCAR-8 > 10 µM | SF-539 > 10 µM | UACC-257 > 10 µM | HCC 2998 > 10 µM | KM12 > 10 µM | MOLT-4 > 10 µM | A549 > 10 µM | TK-10 > 10 µM | 786-0 > 10 µM | SW-620 > 10 µM | SNB-19 > 10 µM

COc1ccc(-c2ccc(C(=O)C=P(c3ccccc3)(c3ccccc3)c3ccccc3)cc2)cc1
inactive: HOP-62 17.9 µM | A498 12.2 µM | SK-OV-3 16.9 µM | Hs-578T 23 µM | DU-145 14.5 µM | Malme-3M 18.7 µM | HCT-116 12.4 µM | SF-539 17.7 µM | UACC-257 17.7 µM | HCC 2998 1.79 µM | KM12 13.7 µM | MOLT-4 4.59 µM | HOP-92 4.72 µM | A549 6.95 µM | TK-10 10.8 µM | 786-0 16.7 µM | SW-620 14.6 µM | SNB-19 25.6 µM

O=C(O)c1nc2ccccc2nc1NCc1ccc(F)cc1
inactive: HOP-62 > 100 µM | A498 > 100 µM | Hs-578T 61.8 µM | DU-145 99.8 µM | HCT-116 41.6 µM | SNB-75 > 100 µM | OVCAR-8 53.2 µM | SF-539 > 100 µM | UACC-257 > 100 µM | HCC 2998 99.1 µM | KM12 47.1 µM | MOLT-4 67 µM | HOP-92 95.1 µM | A549 57.7 µM | TK-10 > 100 µM | 786-0 42.8 µM | SW-620 63.8 µM | SNB-19 47.5 µM

COP(C)(=O)C1=CCN(C(=O)OCC[Si](C)(C)C)CC1 (stereo not given)
inactive: HOP-62 > 100 µM | A498 > 100 µM | SK-OV-3 > 100 µM | Hs-578T > 100 µM | DU-145 > 100 µM | Malme-3M > 100 µM | SNB-75 > 100 µM | OVCAR-8 > 100 µM | UACC-257 > 100 µM | HCC 2998 > 100 µM | KM12 > 100 µM | HOP-92 > 100 µM | A549 > 100 µM | TK-10 > 100 µM | 786-0 > 100 µM | SW-620 > 100 µM | SNB-19 > 100 µM

O=c1[nH]c2nccn2c2c1SCCN2
inactive: HOP-62 > 100 µM | A498 > 100 µM | Hs-578T > 100 µM | DU-145 > 100 µM | Malme-3M > 100 µM | HCT-116 > 100 µM | SNB-75 > 100 µM | OVCAR-8 > 100 µM | SF-539 > 100 µM | UACC-257 > 100 µM | HCC 2998 > 100 µM | KM12 > 100 µM | MOLT-4 > 100 µM | A549 > 100 µM | TK-10 > 100 µM | 786-0 > 100 µM | SW-620 > 100 µM | SNB-19 > 100 µM

CC1=NN(C2=NS(=O)(=O)c3ccccc3N2C)C(=O)C1
inactive: HOP-62 > 100 µM | A498 50.8 µM | SK-OV-3 > 100 µM | Hs-578T > 100 µM | DU-145 > 100 µM | HCT-116 > 100 µM | OVCAR-8 > 100 µM | SF-539 > 100 µM | UACC-257 > 100 µM | HCC 2998 > 100 µM | KM12 > 100 µM | MOLT-4 > 100 µM | HOP-92 > 100 µM | A549 > 100 µM | TK-10 > 100 µM | 786-0 > 100 µM | SW-620 > 100 µM | SNB-19 > 100 µM

NCCCCN(CCCN)C(=O)OCc1ccccc1
inactive: HOP-62 > 100 µM | A498 > 100 µM | SK-OV-3 > 100 µM | Hs-578T > 100 µM | DU-145 > 100 µM | HCT-116 > 100 µM | SNB-75 > 100 µM | OVCAR-8 > 100 µM | SF-539 > 100 µM | UACC-257 > 100 µM | HCC 2998 > 100 µM | KM12 > 100 µM | MOLT-4 > 100 µM | HOP-92 > 100 µM | A549 > 100 µM | TK-10 > 100 µM | 786-0 > 100 µM | SW-620 > 100 µM | SNB-19 > 100 µM

O=C(O)Cc1ccc2c(c1)/C(=C1/Nc3ccccc3C1=O)C(=O)N2
inactive: HOP-62 51.8 µM | A498 31.7 µM | SK-OV-3 23.4 µM | Hs-578T 27.8 µM | DU-145 49.9 µM | Malme-3M 27.4 µM | HCT-116 24 µM | SNB-75 26.1 µM | OVCAR-8 32 µM | UACC-257 32.3 µM | HCC 2998 36.5 µM | KM12 29.2 µM | MOLT-4 25.8 µM | A549 80.9 µM | TK-10 > 100 µM | 786-0 27.5 µM | SW-620 46.2 µM | SNB-19 66.2 µM
